From patent US11970497B2, “Tricyclic AKR1C3 dependent KARS inhibitors” (Novartis AG, priority 2019, dated 2024)

Legend:
[1] = system: H460 (NRF2 pathway mutant cell line with high AKR1C3 expression); assay: In vitro cell proliferation assay (CellTiter-Glo), H460; type: cell-based; details: Homo sapiens, NCI-H460, 72 h; H460 cells, 3 days, CellTiter-Glo, top concentration 10 μM; read-out: H460 Qualified absolute AC50
Summary of the method: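 Luminescent CellTiter-Glo readout after 3-day compound exposure at 37 °C; 8-point 1:5 series, top 10 μM final. Seeding: 800 cells/well for H460, 2000 cells/well for Hara, RPMI-1640 plus 10% FBS. AC50 and percentage activity derived after normalizing to DMSO (1%) and MG132 (30 μM) controls.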

[2] = system: Hara (NRF2 pathway wild type cell line with low AKR1C3 expression); assay: In vitro cell proliferation assay (CellTiter-Glo), Hara; type: cell-based; details: 72 h; Hara cells, 3 days, CellTiter-Glo, top concentration 10 μM; read-out: HARA Qualified absolute AC50
Text: Cellular Proliferation Assay to Assess Compounds Activity in H460 (NRF2 Pathway Mutant Cell Line with High AKR1C3 Expression) and Hara (NRF2 Pathway Wild Type Cell Line with Low AKR1C3 Expression).
The cell lines A549 and H460 are NRF2 pathway mutant and specifically contain genetic alterations in KEAP1 (A549: G333C, H460: D236H) (Singh A. et al., 2006 PLoS Medicine 3(10) e420). In these cell lines the NRF2 pathway is constitutively active and these cells express high levels of NRF2 protein and NRF2 pathway target gene AKR1C3. […] They have low AKR1C3 expression.
In Vitro Cell Proliferation Assay
Day 1, for H460 800 cells/well or 40 μL of 2×10^4 cells/mL and for Hara 2000 cells/well or 40 μL of 5×10^4 cells/mL medium (RPMI-1640 supplemented with 10% fetal bovine serum and 1% penicillin/streptomycin) were seeded into 384-well tissue culture plates. Day 2, compounds were serially diluted 1:5 to generate 8 point dose response curves and added to cells for a final top concentration of 10 μM. DMSO (1%) control and MG132 (30 μM) controls are added in columns 23 and 24 respectively on each plate for positive and negative control. After incubation for 3 days at 37° C./5% CO2, 30 μl of CellTiter-Glo reagent (Promega) was added and the plates were incubated for 10 min on plate shaker. The amount of luminescence was determined using a Perkin Elmer Envision plate reader. CellTiter-Glo luminescence values of cells treated with DMSO and MG132 controls were used to normalize the data and calculate percentage activity and AC50s of compounds using the Helios Software suite.

Nc1ccc(CNC(=O)N2CCC3(CC2)CC(=O)c2cc(F)ccc2N3)c(F)c1F [Example 57, N-(4-amino-2,3-difluorobenzyl)-6′-fluoro-4′-oxo-3′,4′-dihydro-1′H-spiro[piperidine-4,2′-quinoline]-1-carboxamide]
AC50 [1]: 170 nM
AC50 [2]: > 10000 nM

COC(=O)c1cc(CNC(=O)N2CCC3(CC2)CC(=O)c2cc(F)ccc2N3)ccc1F [Example 61, methyl 2-fluoro-5-((6′-fluoro-4′-oxo-3′,4′-dihydro-1′H-spiro[piperidine-4,2′-quinoline]-1-carboxamido)methyl)benzoate]
AC50 [1]: 205 nM
AC50 [2]: 3040 nM

CN1c2ccc(F)cc2C(=O)CC12CCN(C(=O)NCc1ccc(F)c(CC(N)=O)c1)CC2 [Example 62, N-(3-(2-amino-2-oxoethyl)-4-fluorobenzyl)-6′-fluoro-1′-methyl-4′-oxo-3′,4′-dihydro-1′H-spiro[piperidine-4,2′-quinoline]-1-carboxamide]
AC50 [1]: 212 nM
AC50 [2]: > 10000 nM

O=C1CC2(CCN(C(=O)NCc3ncccc3O)CC2)Nc2c(F)cc(F)cc21 [Example 63, 6′,8′-difluoro-N-((3-hydroxypyridin-2-yl)methyl)-4′-oxo-3′,4′-dihydro-1′H-spiro[piperidine-4,2′-quinoline]-1-carboxamide]
AC50 [1]: 222 nM
AC50 [2]: > 10000 nM

CNC(=O)c1cc(CNC(=O)N2CCC3(CC2)CC(=O)c2cc(F)ccc2N3)ccc1F [Example 64, 6′-fluoro-N-(4-fluoro-3-(methylcarbamoyl)benzyl)-4′-oxo-3′,4′-dihydro-1′H-spiro[piperidine-4,2′-quinoline]-1-carboxamide]
AC50 [1]: 222 nM
AC50 [2]: > 10000 nM

Nc1c(F)cc(CNC(=O)N2CCC3(CC2)CC(=O)c2cc(F)ccc2N3)cc1F [Example 65, N-(4-amino-3,5-difluorobenzyl)-6′-fluoro-4′-oxo-3′,4′-dihydro-1′H-spiro[piperidine-4,2′-quinoline]-1-carboxamide]
AC50 [1]: 222 nM
AC50 [2]: > 10000 nM

CN(C)c1cccc(CNC(=O)N2CCC3(CC2)CC(=O)c2cc(F)cc(F)c2N3)n1 [Example 66, N-((6-(dimethylamino)pyridin-2-yl)methyl)-6′,8′-difluoro-4′-oxo-3′,4′-dihydro-1′H-spiro[piperidine-4,2′-quinoline]-1-carboxamide]
AC50 [1]: 223 nM
AC50 [2]: > 10000 nM

O=C1CC2(CCN(C(=O)NCc3ccc(F)cc3C(F)(F)F)CC2)Nc2ccc(F)cc21 [Example 67, 6′-fluoro-N-(4-fluoro-2-(trifluoromethyl)benzyl)-4′-oxo-3′,4′-dihydro-1′H-spiro[piperidine-4,2′-quinoline]-1-carboxamide]
AC50 [1]: 225 nM
AC50 [2]: 2300 nM

O=C1CC2(CCN(C(=O)NCc3ccc(F)cc3Cl)CC2)Nc2ccc(F)cc21 [Example 68, N-(2-chloro-4-fluorobenzyl)-6′-fluoro-4′-oxo-3′,4′-dihydro-1′H-spiro[piperidine-4,2′-quinoline]-1-carboxamide]
AC50 [1]: 226 nM
AC50 [2]: 9140 nM

NC(=O)c1cccc(CNC(=O)N2CCC3(CC2)CC(=O)c2cc(F)ccc2N3)c1 [Example 69, N-(3-carbamoylbenzyl)-6′-fluoro-4′-oxo-3′,4′-dihydro-1′H-spiro[piperidine-4,2′-quinoline]-1-carboxamide]
AC50 [1]: 233 nM
AC50 [2]: > 10000 nM

O=C1CC2(CCN(C(=O)NCc3ccc(F)c(OCCO)c3)CC2)Nc2ccc(F)cc21 [Example 70, 6′-fluoro-N-(4-fluoro-3-(2-hydroxyethoxy)benzyl)-4′-oxo-3′,4′-dihydro-1′H-spiro[piperidine-4,2′-quinoline]-1-carboxamide]
AC50 [1]: 238 nM
AC50 [2]: 3550 nM

O=C1CC2(CCN(C(=O)NCc3cc(OCCO)c(F)cc3F)CC2)Nc2ccc(F)cc21 [Example 71, N-(2,4-difluoro-5-(2-hydroxyethoxy)benzyl)-6′-fluoro-4′-oxo-3′,4′-dihydro-1′H-spiro[piperidine-4,2′-quinoline]-1-carboxamide]
AC50 [1]: 265 nM
AC50 [2]: > 10000 nM

Nc1cc(CNC(=O)N2CCC3(CC2)CC(=O)c2cc(F)cc(F)c2N3)ccc1F [Example 73, N-(3-amino-4-fluorobenzyl)-6′,8′-difluoro-4′-oxo-3′,4′-dihydro-1′H-spiro[piperidine-4,2′-quinoline]-1-carboxamide]
AC50 [1]: 295 nM
AC50 [2]: 3480 nM

NS(=O)(=O)c1cccc(CNC(=O)N2CCC3(CC2)CC(=O)c2cc(F)ccc2N3)c1 [Example 74, 6′-fluoro-4′-oxo-N-(3-sulfamoylbenzyl)-3′,4′-dihydro-1′H-spiro[piperidine-4,2′-quinoline]-1-carboxamide]
AC50 [1]: 305 nM
AC50 [2]: > 10000 nM

CCN1c2ccc(F)cc2C(=O)CC12CCN(C(=O)NCc1ccc(F)c(NCCO)c1F)CC2 [Example 75, N-(2,4-difluoro-3-((2-hydroxyethyl)amino)benzyl)-1′-ethyl-6′-fluoro-4′-oxo-3′,4′-dihydro-1′H-spiro[piperidine-4,2′-quinoline]-1-carboxamide]
AC50 [1]: 306 nM
AC50 [2]: > 10000 nM

CN1c2ccc(F)cc2C(=O)CC12CCN(C(=O)NCc1ccc(N)cc1)CC2 [Example 76, N-(4-aminobenzyl)-6′-fluoro-1′-methyl-4′-oxo-3′,4′-dihydro-1′H-spiro[piperidine-4,2′-quinoline]-1-carboxamide]
AC50 [1]: 309 nM
AC50 [2]: > 10000 nM

O=C1CC2(CCN(C(=O)NCc3cc(NCCO)c(F)cc3F)CC2)Nc2ccc(F)cc21 [Example 77, N-(2,4-difluoro-5-((2-hydroxyethyl)amino)benzyl)-6′-fluoro-4′-oxo-3′,4′-dihydro-1′H-spiro[piperidine-4,2′-quinoline]-1-carboxamide]
AC50 [1]: 311 nM
AC50 [2]: > 10000 nM

O=C1CC2(CCN(C(=O)NCc3ccc(F)c(NCCO)c3)CC2)Nc2ccc(F)cc21 [Example 78, 6′-fluoro-N-(4-fluoro-3-((2-hydroxyethyl)amino)benzyl)-4′-oxo-3′,4′-dihydro-1′H-spiro[piperidine-4,2′-quinoline]-1-carboxamide]
AC50 [1]: 321 nM
AC50 [2]: > 10000 nM

Nc1cc(F)c(CNC(=O)N2CCC3(CC2)CC(=O)c2cc(F)ccc2N3)c(F)c1 [Example 80, N-(4-amino-2,6-difluorobenzyl)-6′-fluoro-4′-oxo-3′,4′-dihydro-1′H-spiro[piperidine-4,2′-quinoline]-1-carboxamide]
AC50 [1]: 347 nM
AC50 [2]: > 10000 nM

CN1c2ccc(F)cc2C(=O)CC12CCN(C(=O)NCc1ccc(F)c(C(=O)NCCO)c1)CC2 [Example 82, 6′-fluoro-N-(4-fluoro-3-((2-hydroxyethyl)carbamoyl)benzyl)-1′-methyl-4′-oxo-3′,4′-dihydro-1′H-spiro[piperidine-4,2′-quinoline]-1-carboxamide]
AC50 [1]: 356 nM
AC50 [2]: > 10000 nM

O=C1CC2(CCN(C(=O)NCc3ccc(F)c(CO)c3)CC2)Nc2ccc(F)cc21 [Example 83, 6′-fluoro-N-(4-fluoro-3-(hydroxymethyl)benzyl)-4′-oxo-3′,4′-dihydro-1′H-spiro[piperidine-4,2′-quinoline]-1-carboxamide]
AC50 [1]: 361 nM
AC50 [2]: > 10000 nM

Nc1c(F)ccc(CNC(=O)N2CCC3(CC2)CC(=O)c2cc(F)ccc2N3)c1F [Example 84, N-(3-amino-2,4-difluorobenzyl)-6′-fluoro-4′-oxo-3′,4′-dihydro-1′H-spiro[piperidine-4,2′-quinoline]-1-carboxamide]
AC50 [1]: 367 nM
AC50 [2]: > 10000 nM

C/C=C/CN1c2ccc(F)cc2C(=O)CC12CCN(C(=O)NCc1ccc(F)cc1)CC2 [Example 85, (E)-1′-(but-2-en-1-yl)-6′-fluoro-N-(4-fluorobenzyl)-4′-oxo-3′,4′-dihydro-1′H-spiro[piperidine-4,2′-quinoline]-1-carboxamide]
AC50 [1]: 371 nM
AC50 [2]: 9490 nM

CN1c2ccc(F)cc2C(=O)CC12CCN(C(=O)NCc1ccc(F)cc1NCCO)CC2 [Example 86, 6′-fluoro-N-(4-fluoro-2-((2-hydroxyethyl)amino)benzyl)-1′-methyl-4′-oxo-3′,4′-dihydro-1′H-spiro[piperidine-4,2′-quinoline]-1-carboxamide]
AC50 [1]: 379 nM
AC50 [2]: > 10000 nM

Nc1ccc(CNC(=O)N2CCC3(CC2)CC(=O)c2cc(F)ccc2N3)cc1Cl [Example 87, N-(4-amino-3-chlorobenzyl)-6′-fluoro-4′-oxo-3′,4′-dihydro-1′H-spiro[piperidine-4,2′-quinoline]-1-carboxamide]
AC50 [1]: 388 nM
AC50 [2]: > 10000 nM

Nc1ccc(CNC(=O)N2CCC3(CC2)CC(=O)c2cc(F)ccc2N3)cc1 [Example 89, N-(4-aminobenzyl)-6′-fluoro-4′-oxo-3′,4′-dihydro-1′H-spiro[piperidine-4,2′-quinoline]-1-carboxamide]
AC50 [1]: 436 nM
AC50 [2]: > 10000 nM
